EC50 data for 28 compounds are collected here from patent publication US11078170B2 (Assembly Biosciences, Inc., priority 2017, dated 2021).

Each structure is given as a SMILES string.

This experiment has as its system HBV viral production from HepAD38 cells. Put plainly: Activity of test compounds on viral production from HepAD38 cells (viral load by qPCR of HBV core sequence in supernatant). The format is cell-based. Conditions: Hepatitis B virus, 120 h, 5 days incubation, HBV DNA in supernatant by qPCR, top concentration 10 μM, read-out: Viral Load EC50 Activity range. In short, it runs like this:
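HepAD38 cells, 50,000/well in tetracycline-free 2% FBS medium, treated 5 days at 37° C. with compound from 10 μM top concentration. HBV DNA in supernatant quantified by TaqMan qPCR of core sequence against DNA standards, relative to DMSO wells; CellTiter-Glo viability read in parallel. EC50/CC50 from four-parameter logistic fit.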
For orientation: Real-time PCR tracks product formation cycle by cycle.

Consider `CC(C)(C)OCCN1[C@@H](C(=O)Nc2ccc(F)c(Cl)c2)C[C@@H](c2nccs2)NS1(=O)=O` (relative stereo) [HBV-CSU-071-ISO-II, Cis-2-(2-(tert-Butoxy)ethyl)-N-(3-chloro-4-fluorophenyl)-5-(thiazol-2-yl)-1,2,6-thiadiazinane-3-carboxamide 1,1-dioxide], for which the concentration giving a half-maximal response (EC50) – broadly, the concentration that produces a half-maximal response – lay in the range of 1000 to 5000 nM.

Regarding `CN1[C@@H](C(=O)Nc2ccc(F)c(Cl)c2)C[C@@H](c2cc(Cl)c(-c3cnn(C)c3)s2)NS1(=O)=O` [HBV-CSU-302-ISO-II, Cis-N-(3-Chloro-4-fluorophenyl)-5-(4-chloro-5-(1-methyl-1H-pyrazol-4-yl)thiophen-2-yl)-2-methyl-1,2,6-thiadiazinane-3-carboxamide 1,1-dioxide], the EC50 was over 5000 nM.

As to `CN1[C@@H](C(=O)Nc2ccc(F)c(Cl)c2)C[C@@H](c2cc(-c3cnn(CCO)c3)cs2)NS1(=O)=O` [HBV-CSU-296-ISO-II, Cis-N-(3-chloro-4-fluorophenyl)-5-(4-(1-(2-hydroxyethyl)-1H-pyrazol-4-yl)thiophen-2-yl)-2-methyl-1,2,6-thiadiazinane-3-carboxamide 1,1-dioxide], the EC50 was 1000 to 5000 nM.

Regarding `CN1[C@H](C(=O)Nc2ccc(F)c(Cl)c2)C[C@H](c2ccc(-c3ccc(C(F)(F)F)nc3)s2)NS1(=O)=O` [HBV-CSU-158-ISO-I, Cis-N-(3-chloro-4-fluorophenyl)-2-methyl-5-(5-(6-(trifluoromethyl)pyridin-3-yl)thiophen-2-yl)-1,2,6-thiadiazinane-3-carboxamide 1,1-dioxide], the half-maximal effective concentration (EC50) was under 1000 nM.

Turning to `CN1C(C(=O)Nc2ccc(F)c(Cl)c2)CC(c2cccc(-c3cnn(C)c3)c2)NS1(=O)=O` (racemic) [HBV-CSU-247, Cis-N-(3-chloro-4-fluorophenyl)-2-methyl-5-(3-(1-methyl-1H-pyrazol-4-yl)phenyl)-1,2,6-thiadiazinane-3-carboxamide 1,1-dioxide], the half-maximal effective concentration (EC50) is under 1000 nM.

For the compound `[2H]C1[C@]([2H])(C(=O)Nc2ccc(F)c(Cl)c2)N(C([2H])([2H])[2H])S(=O)(=O)N[C@]1([2H])c1ncc(-c2cn(C)cn2)s1` (stereo in doubt) [HBV-CSU-340-ISO-II, Cis-N-(3-Chloro-4-fluorophenyl)-2-(methyl-d3)-5-(5-(1-methyl-1H-imidazol-4-yl)thiazol-2-yl)-1,2,6-thiadiazinane-3,4,5-d3-3-carboxamide 1,1-dioxide], the EC50 is 1000 to 5000 nM.

As to `COCCN1[C@@H](C(=O)Nc2ccc(F)c(Cl)c2)C[C@@H](c2nccs2)NS1(=O)=O` [HBV-CSU-058-ISO-I, Cis-N-(3-chloro-4-fluorophenyl)-2-(2-methoxyethyl)-5-(thiazol-2-yl)-1,2,6-thiadiazinane-3-carboxamide 1,1-dioxide], the EC50 is over 5000 nM.

On to `CN1C(C(=O)Nc2cccc(Cl)c2)CC(c2cccs2)NS1(=O)=O` (racemic) [HBV-CSU-010, Cis-N-(3-chlorophenyl)-2-methyl-5-(thiophen-2-yl)-1,2,6-thiadiazinane-3-carboxamide 1,1-dioxide], for which the concentration giving a half-maximal response (EC50) was under 1000 nM.

For the compound `CN1[C@H](C(=O)Nc2ccc(F)c(Cl)c2)C[C@H](c2ccsn2)NS1(=O)=O` [HBV-CSU-056-ISO-I, Cis-N-(3-chloro-4-fluorophenyl)-5-(isothiazol-3-yl)-2-methyl-1,2,6-thiadiazinane-3-carboxamide 1,1-dioxide], the 50% effective concentration (EC50) was under 1000 nM.

`[2H]C1[C@]([2H])(c2ncc(-c3cn(C([2H])([2H])[2H])cn3)s2)NS(=O)(=O)N(C)[C@]1([2H])C(=O)Nc1ccc(F)c(Cl)c1` (stereo in doubt) [HBV-CSU-341-ISO-I, Cis-N-(3-Chloro-4-fluorophenyl)-2-methyl-5-(5-(1-(methyl-d3)-1H-imidazol-4-yl)thiazol-2-yl)-1,2,6-thiadiazinane-3,4,5-d3-3-carboxamide 1,1-dioxide]: the half-maximal effective concentration (EC50) is under 1000 nM.

As to `COc1ccc(-c2ccc([C@@H]3C[C@H](C(=O)Nc4ccc(F)c(Cl)c4)N(C)S(=O)(=O)N3)s2)cc1` [HBV-CSU-240-ISO-II], the concentration for a half-maximal effect (EC50) was 1000 to 5000 nM.

As for `COc1ccc(C2CC(C(=O)Nc3ccc(F)c(Cl)c3)N(C)S(=O)(=O)N2)cc1` (stereo not drawn) [HBV-CSU-200, Cis-N-(3-Chloro-4-fluorophenyl)-5-(4-methoxyphenyl)-2-methyl-1,2,6-thiadiazinane-3-carboxamide 1,1-dioxide], the half-maximal effective concentration (EC50) is under 1000 nM.

For `CN1[C@H](C(=O)Nc2ccc(F)c(Cl)c2)C[C@H](c2ccccn2)NS1(=O)=O` [HBV-CSU-031-ISO-I, Cis-N-(3-Chloro-4-fluorophenyl)-2-methyl-5-(pyridin-2-yl)-1,2,6-thiadiazinane-3-carboxamide 1,1-dioxide], the half-maximal effective concentration (EC50) was under 1000 nM.

With `O=C(Nc1ccc(F)c(Cl)c1)C1CC(c2nccs2)NS(=O)(=O)N1CCOC(F)(F)F` (racemic) [HBV-CSU-072, Cis-N-(3-Chloro-4-fluorophenyl)-5-(thiazol-2-yl)-2-(2-(trifluoromethoxy)ethyl)-1,2,6-thiadiazinane-3-carboxamide 1,1-dioxide], the 50% effective concentration (EC50) was under 1000 nM.

For the compound `CN1[C@@H](C(=O)Nc2ccc(F)c(Cl)c2)C[C@@H](c2cc(-c3ccccn3)cs2)NS1(=O)=O` [HBV-CSU-168-ISO-I, Cis-N-(3-chloro-4-fluorophenyl)-2-methyl-5-(4-(pyridin-2-yl)thiophen-2-yl)-1,2,6-thiadiazinane-3-carboxamide 1,1-dioxide], the EC50 was 1000 to 5000 nM.

Regarding `CCN(CC)CCCN1[C@H](C(=O)Nc2ccc(F)c(Cl)c2)C[C@H](c2nccs2)NS1(=O)=O` (relative stereo) [HBV-CSU-101-ISO-II, Cis-N-(3-Chloro-4-fluorophenyl)-2-(3-(diethylamino)propyl)-5-(thiazol-2-yl)-1,2,6-thiadiazinane-3-carboxamide 1,1-dioxide], the half-maximal effective concentration (EC50) is over 5000 nM.

For the compound `CC(C)(C)OCCN1[C@H](C(=O)Nc2ccc(F)c(Cl)c2)C[C@H](c2nccs2)NS1(=O)=O` [HBV-CSU-071-ISO-I, Cis-2-(2-(tert-Butoxy)ethyl)-N-(3-chloro-4-fluorophenyl)-5-(thiazol-2-yl)-1,2,6-thiadiazinane-3-carboxamide 1,1-dioxide], the EC50 is under 1000 nM.

Take `CN1[C@H](C(=O)Nc2ccc(F)c(Cl)c2)C[C@H](c2cnc(-c3ccccc3)s2)NS1(=O)=O` [HBV-CSU-235-ISO-I, N-(3-Chloro-4-fluorophenyl)-2-methyl-5-(2-phenylthiazol-5-yl)-1,2,6-thiadiazinane-3-carboxamide 1,1-dioxide]: the EC50 is under 1000 nM.

With `CN1[C@H](C(=O)Nc2ccc(F)c(Cl)c2)C[C@H](c2ncc(-c3ccc(F)cn3)s2)NS1(=O)=O` [HBV-CSU-252-ISO-I, Cis-N-(3-Chloro-4-fluorophenyl)-5-(5-(5-fluoropyridin-2-yl)thiazol-2-yl)-2-methyl-1,2,6-thiadiazinane-3-carboxamide 1,1-dioxide], the concentration for a half-maximal effect (EC50) was under 1000 nM.

As for `CC(C)(C)OCCN1C(C(=O)Nc2ccc(F)c(Cl)c2)CC(c2nccs2)NS1(=O)=O` (racemic) [HBV-CSU-071, Cis-2-(2-(tert-Butoxy)ethyl)-N-(3-chloro-4-fluorophenyl)-5-(thiazol-2-yl)-1,2,6-thiadiazinane-3-carboxamide 1,1-dioxide], the concentration for a half-maximal effect (EC50) was 1000 to 5000 nM.

Regarding `CN1C(C(=O)Nc2ccc(F)c(Cl)c2)CC(c2nc(Br)cs2)NS1(=O)=O` (racemic) [HBV-CSU-150, Cis-5-(4-Bromothiazol-2-yl)-N-(3-chloro-4-fluorophenyl)-2-methyl-1,2,6-thiadiazinane-3-carboxamide 1,1-dioxide], the half-maximal effective concentration (EC50) is under 1000 nM.

Regarding `CN1[C@@H](C(=O)Nc2ccc(F)c(Cl)c2)C[C@@H](c2ccc(-c3ccn(C)n3)s2)NS1(=O)=O` [HBV-CSU-270-ISO-II, Cis-N-(3-Chloro-4-fluorophenyl)-2-methyl-5-(5-(1-methyl-1H-pyrazol-3-yl)thiophen-2-yl)-1,2,6-thiadiazinane-3-carboxamide 1,1-dioxide], the EC50 was 1000 to 5000 nM.

Turning to `CN1C(C(=O)Nc2ccc(F)c(Cl)c2)CC(c2cc(Cl)c(O)c(Cl)c2)NS1(=O)=O` (stereo not drawn) [HBV-CSU-260, Cis-N-(3-Chloro-4-fluorophenyl)-5-(3,5-dichloro-4-hydroxyphenyl)-2-methyl-1,2,6-thiadiazinane-3-carboxamide 1,1-dioxide], the EC50 was under 1000 nM.

Turning to `Cc1cc([C@H]2C[C@@H](C(=O)Nc3ccc(F)c(Cl)c3)N(C)S(=O)(=O)N2)sc1-c1cnn(C)c1` (relative stereo) [HBV-CSU-300-ISO-I, Cis-N-(3-Chloro-4-fluorophenyl)-5-(4-methyl-5-(1-methyl-1H-pyrazol-4-yl)thiophen-2-yl)-2-methyl-1,2,6-thiadiazinane-3-carboxamide 1,1-dioxide], the EC50 was under 1000 nM.

As for `Cc1sc([C@@H]2C[C@H](C(=O)Nc3ccc(F)c(Cl)c3)N(C)S(=O)(=O)N2)cc1-c1cnn(C)c1` [HBV-CSU-304-ISO-II, Cis-N-(3-Chloro-4-fluorophenyl)-2-methyl-5-(5-methyl-4-(1-methyl-1H-pyrazol-4-yl)thiophen-2-yl)-1,2,6-thiadiazinane-3-carboxamide 1,1-dioxide], the half-maximal effective concentration (EC50) was over 5000 nM.

In the case of `CN1C(C(=O)Nc2ccc(F)c(Cl)c2)CC(c2ncc(-c3ccc(F)cc3)s2)NS1(=O)=O` (racemic) [HBV-CSU-248, Cis-N-(3-Chloro-4-fluorophenyl)-5-(5-(4-fluorophenyl)thiazol-2-yl)-2-methyl-1,2,6-thiadiazinane-3-carboxamide 1,1-dioxide], the concentration giving a half-maximal response (EC50) is under 1000 nM.

Take `CN1[C@H](C(=O)Nc2cc(Br)cc(Br)c2)C[C@H](c2cccs2)NS1(=O)=O` [HBV-CSU-048-ISO-I, Cis-N-(3,5-Dibromophenyl)-2-methyl-5-(thiophen-2-yl)-1,2,6-thiadiazinane-3-carboxamide 1,1-dioxide]: the EC50 was under 1000 nM.

Consider `CN1[C@H](C(=O)Nc2ccc(F)c(Cl)c2)C[C@H](c2cc(-c3ccn(C)n3)cs2)NS1(=O)=O` [HBV-CSU-288-ISO-I, Cis-N-(3-Chloro-4-fluorophenyl)-2-methyl-5-(4-(1-methyl-1H-pyrazol-3-yl)thiophen-2-yl)-1,2,6-thiadiazinane-3-carboxamide 1,1-dioxide], for which the EC50 was under 1000 nM.
